Experimental data taken from patent US11813264B2, “PAR1 modulation to alter myelination” (Mayo Foundation for Medical Education and Research, priority 2014, dated 2023).

Legend:
[1] = test system: primary oligodendrocyte cultures (3 DIV); experiment: Oligodendrocyte morphological differentiation scoring (simple, incomplete, complete, membrane), process and cell number; assay type: cell-based, mouse; conditions: 24 hours
Procedure: Oligodendrocyte Cultures: Purified cortical oligodendrocyte progenitor cells (OPCs) and differentiated oligodendrocytes were isolated from mixed glial cultures derived from postnatal day 1 mice (McCarthy and de Vellis, J Cell Blot 85:890-902, 1980). Glial cultures were grown in media containing DMEM, 2 mM Glutamax, 1 mM sodium pyruvate, 20 mM HEPES, and 10% heat-inactivated fetal calf serum (Atlanta Biologicals, Lawrenceville, GA). OPCs were isolated from 10 days-in-vitro (DIV) mixed glial cultures by overnight shaking and purified by differential adhesion. OPCs were seeded in defined Neurobasal A media containing 1% N2, 50 U/mL penicillin/streptomycin, 2 mM Glutamax, 1 mM sodium pyruvate, 0.45% glucose, and 50 μM β-mercaptoethanol (Sigma Aldrich, USA). OPCs were seeded at 3×10^4/cm^2 onto tissue culture plastic or 12 mm glass cover slips coated with poly-L-lysine (PLL, 10 μg/mL). After 24 h, cultures were 92-98% immunoreactive (IR) for sulfatide (O4) and by 72 hours at least 80% were also MBP-IR.
PAR agonist-induced changes in oligodendrocyte morphology: To determine the effects of recombinant Klk6, Klk1, thrombin, or PAR1-AP on oligodendroglia, 3 DIV PAR1^+/+, PAR1^−/−, and PAR2^−/− oligodendrocytes, PAR1^+/+ OPCs immediately post purification, or Oli-neu cells were grown on cover slips in the presence of agonists for 24 h. For ATP toxicity assays, oligodendrocytes were incubated with ATP (50 μM, Sigma Aldrich) in the presence of Klk6 or Klk1. Following each treatment, oligodendrocyte and OPC cultures were immunolabeled for O4 to visualize the cell body and processes. Oli-neu processes were visualized by staining the actin cytoskeleton with Cy3-conjugated Phalloidin.
To assess the effects of Klk6 and other PAR1 agonists on oligodendrocyte morphology and process stability, 20× digital micrographs were overlaid with a 780 μm^2 grid and ImageJ software 1.45r (National Institutes of Health) used to record cell number and the number of processes crossing horizontal grid lines (Scarisbrick et al., Brain 125:1283-1296, 2002). Data are expressed as the mean number of O4^+ or Phalloidin^+ processes per DAPI^+ cell (±SEM).
The extent of oligodendrocyte morphological differentiation was determined by scoring O4^+/DAPI^+ oligodendrocyte morphology as simple (only primary processes, no secondary branching), incomplete (one or more primary process without secondary branching), complete (all primary processes with secondary branching), or membrane (complete secondary branching with membrane sheets) (Huang et al., Nat Neurosci 14:45-53, 2011). The mean number of cells in each morphology class was determined across treatments and expressed as percent of total O4^+/DAPI^+ cells.
Changes in OPC or oligodendrocyte morphology were quantified from five microscopic fields per cover slip with the mean and SEM calculated across three cover slips per experiment. Each experiment was repeated at least twice using independent cultures. Analysis of oligodendrocyte morphology was performed without knowledge of treatment groups.

[2] = test system: PLP and MBP RNA expression; experiment: Myelin gene expression (PLP, MBP RNA) in Oli-neu oligodendrocytes, quantitative RT-PCR; assay type: cell-based, mouse; conditions: 24 hours
Procedure: Oli-neu oligodendrocytes are derived from mouse primary oligodendrocyte cultures retrovirally transduced to constitutively express the t-neu oncogene (Jung et al., Eur J Neurosci 7:1245-1265, 1995). All morphology, signaling, and myelin gene expression studies using Oli-neu oligodendrocytes were performed in media containing DMEM, 1% N2, 2 mM Glutamax, 1 mM sodium pyruvate, 20 mM HEPES buffer, and 50 μM β-mercaptoethanol (Sigma Aldrich. To evaluate PAR and Klk6 gene expression in Oli-neu (Table 2), cells were differentiated by treatment with 1 mM N^6, 2′-O-dibutyryladenosine 3′, 5′-cyclic monophosphate disodium salt (dbcAMP) for 72 hours prior to harvesting for RNA isolation. All cells were maintained at 37° C. in 95% air and 5% CO2. Cell culture reagents were obtained from Life Technologies (Carlsbad, CA) unless otherwise indicated. All cell culture experiments were performed in triplicate and repeated at least twice.
Expression of oligodendrocyte PARs and Klk6-real-time quantitative PCR: Total RNA was isolated from cultured cells using RNA STAT-60 (Tel-Test, Friendswood, TX). Klk6, PAR1, or PAR2 RNA expression was determined in 0.5 μg of RNA with the iScript one-step RT-PCR kit with SYBR® Green and the iCycler iQ5 system (BioRad, Hercules, CA). Transcript copy number was determined using a standard curve prepared by parallel amplification of cDNA clones diluted to known copy number (Christophi et al., J Neurochem 91:1439-1449, 2004). Amplification of the housekeeping gene glyceraldehyde phosphate 3-dehydrogenase (GAPDH) was used to control for loading. The mean and standard error (SEM) of transcript copy number was determined and data expressed as RNA copy number on a logarithmic scale.
Regulation of oligodendrocyte myelin gene expression by PAR1 agonists: Primary murine oligodendrocytes (3 DIV) or Oli-neu oligodendrocytes were seeded at 3.5×10^5 cells/well in six-well tissue culture plates. Cells were then treated with Klk6 (30-300 nM), Klk1 (300 nM), thrombin (270 nM), or PAR1-AP (100 μM) for 24 hours prior to RNA isolation. Expression of myelin-associated genes, PLP, and MBP was examined by real-time quantitative RT-PCR. Expression levels of target genes were normalized to GAPDH and expressed as percent control.

[3] = test system: rat primary oligodendrocytes; conditions: 30 or 300 nM, 24 hours; cited from earlier work

Klk6: Recombinant murine kallikrein-related peptidase 6 expressed using a baculovirus system
number of incomplete oligodendrocyte morphologies ([1]; 150 nM): greater than four-fold increase | number of simple oligodendrocyte morphologies ([1]; 150 nM): two-fold increase | oligodendrocytes with complete morphology ([1]; 150 nM): nearly eleven-fold decrease | oligodendroglia with membrane morphology ([1]; 150 nM): elimination | oligodendrocyte number ([1]; Klk6 150 nM, Klk1 300 nM): no significant effect | processes per cell ([1]; Klk6 150 nM, Klk1 300 nM): two-fold fewer | MBP RNA [2]: no significant suppression | PLP RNA at 30, 150 and 300 nM [2]: significant and equivalent PLP RNA down regulation | PLP expression ([2]; Klk6 300 nM, thrombin 270 nM, PAR1-AP 100 μM, Klk1 300 nM): significantly diminished | process retraction and oligodendrocyte degeneration [3]: significant process retraction without oligodendrocyte degeneration
